Experiments:
THP1 cells = experiment: Lipopolysaccharide-activated THP1 cell TNF production assay; format: cell-based, human; settings: Homo sapiens, THP-1; LPS-induced TNF-α production in THP1 cells
Method in brief: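 THP1 cells at 1E6/mL were stimulated with LPS (1 μg/mL prepared stock) alongside 3-fold serially diluted compound for 3 h at 37 °C. Secreted TNF-α was quantified by electrochemiluminescence sandwich immunoassay. Percent of DMSO control was fitted to a 4-parameter logistic equation.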

p38α = p38α (Homo sapiens, UniProt Q16539); experiment: p38 in-vitro HTRF enzyme assay; format: biochemical; settings: IC50 value ranges
Method in brief: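 Activated recombinant human p38α with ATP and 100 nM GST-ATF2-Avitag, 1 h at RT in Tris pH 7.5/MgCl2 buffer; compound 10-point 3-fold series from about 1 μM final. HTRF 665/620 nm ratio; IC50 from 4-parameter fit, Ki via Cheng-Prusoff with experimental ATP Km.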

monocytes = experiment: Lipopolysaccharide-activated monocyte TNF production assay (LPS induced TNF release); format: cell-based, human; settings: Homo sapiens, Monocyte; LPS induced TNF release from monocytes; read-out: LPS induced TNFa
Method in brief: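 Adherent monocytes from human PBMCs were pretreated with compound 60 min, then stimulated with E. coli LPS (30 ng/mL stock added) for 4 h at 37 °C. Supernatant TNF-α measured by sandwich ELISA; concentration giving 50% TNF reduction derived by polynomial fit.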

Sequence of p38α (Q16539 whole entry): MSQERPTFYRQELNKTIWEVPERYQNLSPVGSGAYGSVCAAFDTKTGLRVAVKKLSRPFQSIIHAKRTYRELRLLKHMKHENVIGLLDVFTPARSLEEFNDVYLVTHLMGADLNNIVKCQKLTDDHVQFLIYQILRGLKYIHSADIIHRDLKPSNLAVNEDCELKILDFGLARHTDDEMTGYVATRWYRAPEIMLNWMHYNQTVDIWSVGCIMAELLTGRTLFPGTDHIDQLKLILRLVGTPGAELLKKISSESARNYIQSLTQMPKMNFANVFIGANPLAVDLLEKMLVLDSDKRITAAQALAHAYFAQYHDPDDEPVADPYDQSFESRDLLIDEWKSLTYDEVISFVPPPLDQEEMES

SMILES | IC50 (THP1 cells) [nM] | IC50 (p38α) [nM] | IC50 (monocytes) [nM]
Cc1ccc(C(=O)NC2CC2)cc1-c1ccn2c(-c3ccccc3Cl)nnc2c1C [Example 78, 3-(3-(2-chlorophenyl)-8-methyl[1,2,4]triazolo[4,3-a]pyridin-7-yl)-N-cyclopropyl-4-methylbenzamide] | 25 to 100 | 25 to 100 | 250 to 1000
Cc1cc(F)c(C(=O)NC2CC2)cc1-c1ccn2c(-c3ccccc3Cl)nnc2c1 [Example 70, 5-(3-(2-chlorophenyl)[1,2,4]triazolo[4,3-a]pyridin-7-yl)-N-cyclopropyl-2-fluoro-4-methylbenzamide] | 25 to 100 | < 25 | 100 to 250
Cc1ccc(C(=O)Nc2ccnn2C)cc1-c1ccn2c(-c3ccccc3Cl)ncc2c1 [Example 9, 3-(3-(2-chlorophenyl)imidazo[1,5-a]pyridin-7-yl)-4-methyl-N-(1-methyl-1H-pyrazol-5-yl)benzamide] | < 25 | < 25 | 25 to 100
Cc1ccc(C(=O)NC2CC2)cc1-c1ccn2c(-c3c(Cl)cccc3Cl)nnc2c1 [Example 62, N-cyclopropyl-3-(3-(2,6-dichlorophenyl)[1,2,4]triazolo[4,3-a]pyridin-7-yl)-4-methylbenzamide] | < 25 | < 25 | < 25
Cc1ccc(C(=O)NC2CC2)cc1-c1ccn2c(NC(C)C)nnc2c1 [Example 7, N-cyclopropyl-4-methyl-3-(3-((1-methylethyl)amino)[1,2,4]triazolo[4,3-a]pyridin-7-yl)benzamide] | 100 to 250 | < 25 | 100 to 250
Cc1ccc(C(=O)NC2CC2)cc1-c1ccn2c(-c3ccc(S(C)(=O)=O)cc3)nnc2c1 [Example 12, N-cyclopropyl-4-methyl-3-(3-(4-(methylsulfonyl)phenyl)[1,2,4]triazolo[4,3-a]pyridin-7-yl)benzamide] | 1000 to 5000 | 25 to 100 | 250 to 1000
Cc1ccc(C(=O)NC2CC2)cc1-c1ccn2c(-c3cc(F)c(F)cc3Cl)nnc2c1 [Example 48, 3-(3-(2-chloro-4,5-difluorophenyl)[1,2,4]triazolo[4,3-a]pyridin-7-yl)-N-cyclopropyl-4-methylbenzamide] | 100 to 250 | < 25 | 100 to 250

Other lines, results leading:

IC50 (THP1 cells) [nM] | IC50 (p38α) [nM] | IC50 (monocytes) [nM] | SMILES
25 to 100 | < 25 | 100 to 250 | Cc1ccc(C(=O)NC2CC2)cc1-c1ccn2c(-c3ccccc3C(F)(F)F)nnc2c1 [Example 104, N-cyclopropyl-4-methyl-3-(3-(2-(trifluoromethyl)phenyl)[1,2,4]triazolo[4,3-a]pyridin-7-yl)benzamide]
25 to 100 | < 25 | 100 to 250 | CCc1ccccc1-c1nnc2cc(-c3cc(C(=O)NC4CC4)ccc3C)ccn12 [Example 103, N-cyclopropyl-3-(3-(2-ethylphenyl)[1,2,4]triazolo[4,3-a]pyridin-7-yl)-4-methylbenzamide]
100 to 250 | 25 to 100 | 250 to 1000 | Cc1ccc(C(=O)Nc2ccnn2C)cc1-c1ccn2c(-c3cccnc3C)nnc2c1 [Example 33, 4-methyl-N-(1-methyl-1H-pyrazol-5-yl)-3-(3-(2-methyl-3-pyridinyl)[1,2,4]triazolo[4,3-a]pyridin-7-yl)benzamide]
< 25 | < 25 | < 25 | Cc1ccc(C(=O)NC2CC2)cc1-c1ccn2c(-c3c(C)cccc3Cl)nnc2c1 [Example 81, 3-(3-(2-chloro-6-methylphenyl)[1,2,4]triazolo[4,3-a]pyridin-7-yl)-N-cyclopropyl-4-methylbenzamide]
25 to 100 | 25 to 100 | 100 to 250 | Cc1ccc(C(=O)NC2CC2)cc1-c1ccn2c(-c3cccnc3C)nnc2c1 [Example 34, N-cyclopropyl-4-methyl-3-(3-(2-methyl-3-pyridinyl)[1,2,4]triazolo[4,3-a]pyridin-7-yl)benzamide]
